# Data: patent publication US20250019387A1 (Frontier Medicines Corporation, priority 0001, published 2025)
# Target: KRAS G12C and cRAF (Ras-binding domain) interaction (Homo sapiens (Human), UniProt P01116, C118S/C51S/C80L/G12C)
# Assay: Inhibition of KRAS G12C and cRAF binding (AlphaScreen)
# Details: GMPPNP-loaded KRAS G12C, 19-20 hours incubation with compound; read-out: IC50 (Inhibition of KRAS G12C and cRAF Binding)
# Outline: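 Compounds (DMSO) preincubated 19-20 h at room temperature, then RBD with streptavidin donor and glutathione acceptor beads added in 25 mM Hepes pH 7.4, 150 mM NaCl, 5 mM MgCl2, 0.01% Triton X-100, 2% DMSO for 60-90 min. Emission 570 nm (excitation 680 nm); IC50 by 4-parameter fit. Counter-screen used biotin-AviTag-GST instead of RBD.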
# Chain of KRAS G12C and cRAF (Ras-binding domain) interaction (P01116 other isoform, or with tags, fused parts or gaps G12C/C51S/C80L/C118S): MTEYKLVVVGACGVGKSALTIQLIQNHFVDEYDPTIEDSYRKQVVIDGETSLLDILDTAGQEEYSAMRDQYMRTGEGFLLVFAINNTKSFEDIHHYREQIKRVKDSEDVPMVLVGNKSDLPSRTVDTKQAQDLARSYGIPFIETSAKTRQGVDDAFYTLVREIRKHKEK
row,IC50 [nM],Compound
1,10 to 100,"C#Cc1c(F)ccc2cccc(-c3ncc4c(N(C)[C@@H]5CCN(C(=O)/C=C/CN6CC[C@@H](OC)C6)C5)nc(OC[C@@]56CCCN5C[C@H](F)C6)nc4c3F)c12 [Example 287, (E)-1-((R)-3-((7-(8-ethynyl-7-fluoronaphthalen-1-yl)-8-fluoro-2-(((2R,7aS)-2-fluorotetrahydro-1H-pyrrolizin-7a(5H)-yl)methoxy)pyrido[4,3-d]pyrimidin-4-yl)(methyl)amino)pyrrolidin-1-yl)-4-((R)-3-methoxypyrrolidin-1-yl)but-2-en-1-one]"
2,10 to 100,"C#Cc1c(F)ccc2cccc(-c3ncc4c(N(C)[C@@H]5CCN(C(=O)/C=C/CN6CC[C@H](F)C6)C5)nc(OC[C@@]56CCCN5C[C@H](F)C6)nc4c3F)c12 [Example 288, (E)-1-((R)-3-((7-(8-ethynyl-7-fluoronaphthalen-1-yl)-8-fluoro-2-(((2R,7aS)-2-fluorotetrahydro-1H-pyrrolizin-7a(5H)-yl)methoxy)pyrido[4,3-d]pyrimidin-4-yl)(methyl)amino)pyrrolidin-1-yl)-4-((S)-3-fluoropyrrolidin-1-yl)but-2-en-1-one]"
3,10 to 100,"C#Cc1c(F)ccc2cccc(-c3ncc4c(N(C)[C@@H]5CCN(C(=O)/C=C/CN6CC[C@@H](F)C6)C5)nc(OC[C@@]56CCCN5C[C@H](F)C6)nc4c3F)c12 [Example 289, (E)-1-((R)-3-((7-(8-ethynyl-7-fluoronaphthalen-1-yl)-8-fluoro-2-(((2R,7aS)-2-fluorotetrahydro-1H-pyrrolizin-7a(5H)-yl)methoxy)pyrido[4,3-d]pyrimidin-4-yl)(methyl)amino)pyrrolidin-1-yl)-4-((R)-3-fluoropyrrolidin-1-yl)but-2-en-1-one]"
4,< 10,"C#Cc1c(F)ccc2cccc(-c3ncc4c(N(C)[C@@H]5CCN(C(=O)/C=C/CN6C[C@H]7C[C@@H]6CO7)C5)nc(OC[C@@]56CCCN5C[C@H](F)C6)nc4c3F)c12 [Example 290, (E)-4-((1R,4R)-2-oxa-5-azabicyclo[2.2.1]heptan-5-yl)-1-((R)-3-((7-(8-ethynyl-7-fluoronaphthalen-1-yl)-8-fluoro-2-(((2R,7aS)-2-fluorotetrahydro-1H-pyrrolizin-7a(5H)-yl)methoxy)pyrido[4,3-d]pyrimidin-4-yl)(methyl)amino)pyrrolidin-1-yl)but-2-en-1-one]"
5,< 10,"C#Cc1c(F)ccc2cccc(-c3ncc4c(N(C)[C@@H]5CCN(C(=O)/C=C/CN6C[C@@H]7C[C@H]6CO7)C5)nc(OC[C@@]56CCCN5C[C@H](F)C6)nc4c3F)c12 [Example 291, (E)-4-((1S,4S)-2-oxa-5-azabicyclo[2.2.1]heptan-5-yl)-1-((R)-3-((7-(8-ethynyl-7-fluoronaphthalen-1-yl)-8-fluoro-2-(((2R,7aS)-2-fluorotetrahydro-1H-pyrrolizin-7a(5H)-yl)methoxy)pyrido[4,3-d]pyrimidin-4-yl)(methyl)amino)pyrrolidin-1-yl)but-2-en-1-one]"
6,100 to 500,"Cc1nc(C)c(F)c(/C=C/C(=O)N2CC[C@@H](N(C)c3nc(OC[C@@]45CCCN4C[C@H](F)C5)nc4c(F)c(-c5cccc6ccc(F)c(F)c56)ncc34)C2)n1 [Example 294, (E)-1-((R)-3-((7-(7,8-difluoronaphthalen-1-yl)-8-fluoro-2-(((2R,7aS)-2-fluorotetrahydro-1H-pyrrolizin-7a(5H)-yl)methoxy)pyrido[4,3-d]pyrimidin-4-yl)(methyl)amino)pyrrolidin-1-yl)-3-(5-fluoro-2,6-dimethylpyrimidin-4-yl)prop-2-en-1-one]"
7,10 to 100,"Cc1ncc(F)c(/C=C/C(=O)N2CC[C@@H](N(C)c3nc(OC[C@@]45CCCN4C[C@H](F)C5)nc4c(F)c(-c5cccc6ccc(F)c(F)c56)ncc34)C2)n1 [Example 295, (E)-1-((R)-3-((7-(7,8-difluoronaphthalen-1-yl)-8-fluoro-2-(((2R,7aS)-2-fluorotetrahydro-1H-pyrrolizin-7a(5H)-yl)methoxy)pyrido[4,3-d]pyrimidin-4-yl)(methyl)amino)pyrrolidin-1-yl)-3-(5-fluoro-2-methylpyrimidin-4-yl)prop-2-en-1-one]"
8,10 to 100,"Cc1cc(/C=C/C(=O)N2CC[C@@H](Nc3nc(OC[C@@]45CCCN4C[C@H](F)C5)nc4c(F)c(-c5cccc6ccc(F)c(F)c56)ncc34)C2)nc(C)n1 [Example 296, (E)-1-((R)-3-((7-(7,8-difluoronaphthalen-1-yl)-8-fluoro-2-(((2R,7aS)-2-fluorohexahydro-1H-pyrrolizin-7a-yl)methoxy)pyrido[4,3-d]pyrimidin-4-yl)amino)pyrrolidin-1-yl)-3-(2,6-dimethylpyrimidin-4-yl)prop-2-en-1-one]"
9,100 to 500,"C=CC(=O)N1CC[C@@H](N(C)c2nc(OC[C@@]34CCCN3C[C@H](F)C4)nc3c(F)c(-c4cccc5cccc(C#N)c45)ncc23)C1 [Example 297, 8-(4-(((R)-1-acryloylpyrrolidin-3-yl)(methyl)amino)-8-fluoro-2-(((2R,7aS)-2-fluorotetrahydro-1H-pyrrolizin-7a(5H)-yl)methoxy)pyrido[4,3-d]pyrimidin-7-yl)-1-naphthonitrile]"
10,< 10,"C#Cc1c(F)ccc2cccc(-c3ncc4c(N(C)[C@@H]5CCN(C(=O)C=C6CN(C)C6)C5)nc(OC[C@@]56CCCN5C[C@H](F)C6)nc4c3F)c12 [Example 298, 1-((R)-3-((7-(8-ethynyl-7-fluoronaphthalen-1-yl)-8-fluoro-2-(((2R,7aS)-2-fluorotetrahydro-1H-pyrrolizin-7a(5H)-yl)methoxy)pyrido[4,3-d]pyrimidin-4-yl)(methyl)amino)pyrrolidin-1-yl)-2-(1-methylazetidin-3-ylidene)ethan-1-one]"
11,< 10,"CN1CC(=CC(=O)N2CC[C@@H](N(C)c3nc(OC[C@@]45CCCN4C[C@H](F)C5)nc4c(F)c(-c5cccc6ccc(F)c(F)c56)ncc34)C2)C1 [Example 299, 1-((R)-3-((7-(7,8-difluoronaphthalen-1-yl)-8-fluoro-2-(((2R,7aS)-2-fluorotetrahydro-1H-pyrrolizin-7a(5H)-yl)methoxy)pyrido[4,3-d]pyrimidin-4-yl)(methyl)amino)pyrrolidin-1-yl)-2-(1-methylazetidin-3-ylidene)ethan-1-one]"
12,10 to 100,"CN1CC(=CC(=O)N2CC[C@@H](N(C)c3nc(OC[C@@]45CCCN4C[C@H](F)C5)nc4c(F)c(-c5cccc6ccc(F)c(Cl)c56)ncc34)C2)C1 [Example 300, 1-((R)-3-((7-(8-chloro-7-fluoronaphthalen-1-yl)-8-fluoro-2-(((2R,7aS)-2-fluorotetrahydro-1H-pyrrolizin-7a(5H)-yl)methoxy)pyrido[4,3-d]pyrimidin-4-yl)(methyl)amino)pyrrolidin-1-yl)-2-(1-methylazetidin-3-ylidene)ethan-1-one]"
13,10 to 100,"C#Cc1c(F)ccc2cccc(-c3ncc4c(N(C)[C@@H]5CCN(C(=O)/C=C/c6nc(C)ncc6F)C5)nc(OC[C@@]56CCCN5C[C@H](F)C6)nc4c3F)c12 [Example 301, (E)-1-((R)-3-((7-(8-ethynyl-7-fluoronaphthalen-1-yl)-8-fluoro-2-(((2R,7aS)-2-fluorohexahydro-1H-pyrrolizin-7a-yl)methoxy)pyrido[4,3-d]pyrimidin-4-yl)(methyl)amino)pyrrolidin-1-yl)-3-(5-fluoro-2-methylpyrimidin-4-yl)prop-2-en-1-one]"
14,10 to 100,"C#Cc1c(F)ccc2cccc(-c3ncc4c(N(C)[C@@H]5CCN(C(=O)/C=C/c6nc(C)nc(C)c6F)C5)nc(OC[C@@]56CCCN5C[C@H](F)C6)nc4c3F)c12 [Example 302, (E)-1-((R)-3-((7-(8-ethynyl-7-fluoronaphthalen-1-yl)-8-fluoro-2-(((2R,7aS)-2-fluorotetrahydro-1H-pyrrolizin-7a(5H)-yl)methoxy)pyrido[4,3-d]pyrimidin-4-yl)(methyl)amino)pyrrolidin-1-yl)-3-(5-fluoro-2,6-dimethylpyrimidin-4-yl)prop-2-en-1-one]"
15,> 500,"C=CC(=O)N1CC[C@@H](N(C)c2nc(OC[C@@]34CCCN3C[C@H](F)C4)nc3c(F)c(-c4cccc5cccc(C6CC6)c45)ncc23)C1 [Example 304, 1-((R)-3-((7-(8-cyclopropylnaphthalen-1-yl)-8-fluoro-2-(((2R,7aS)-2-fluorotetrahydro-1H-pyrrolizin-7a(5H)-yl)methoxy)pyrido[4,3-d]pyrimidin-4-yl)(methyl)amino)pyrrolidin-1-yl)prop-2-en-1-one]"

row,Compound,IC50 [nM]
1,"C#Cc1c(F)ccc2cccc(-c3ncc4c(N(C)[C@@H]5CCN(C(=O)/C=C/CN6[C@@H]7CC[C@H]6COC7)C5)nc(OC[C@@]56CCCN5C[C@H](F)C6)nc4c3F)c12 [Example 292, (E)-4-((1R,5S)-3-oxa-8-azabicyclo[3.2.1]octan-8-yl)-1-((R)-3-((7-(8-ethynyl-7-fluoronaphthalen-1-yl)-8-fluoro-2-(((2R,7aS)-2-fluorotetrahydro-1H-pyrrolizin-7a(5H)-yl)methoxy)pyrido[4,3-d]pyrimidin-4-yl)(methyl)amino)pyrrolidin-1-yl)but-2-en-1-one]",< 10
2,"C#Cc1c(F)ccc2cccc(-c3ncc4c(N(C)[C@@H]5CCN(C(=O)/C=C/CN6C7COCC6C7)C5)nc(OC[C@@]56CCCN5C[C@H](F)C6)nc4c3F)c12 [Example 293, (E)-4-(3-oxa-6-azabicyclo[3.1.1]heptan-6-yl)-1-((R)-3-((7-(8-ethynyl-7-fluoronaphthalen-1-yl)-8-fluoro-2-(((2R,7aS)-2-fluorotetrahydro-1H-pyrrolizin-7a(5H)-yl)methoxy)pyrido[4,3-d]pyrimidin-4-yl)(methyl)amino)pyrrolidin-1-yl)but-2-en-1-one]",< 10
3,"C#Cc1c(F)ccc2cccc(-c3ncc4c(N(C)[C@@H]5CCN(C(=O)C=C)C5)nc(OCC56CCCN5CCC6)nc4c3F)c12 [Example 303, (R)-1-(3-((7-(8-ethynyl-7-fluoronaphthalen-1-yl)-8-fluoro-2-((tetrahydro-1H-pyrrolizin-7a(5H)-yl)methoxy)pyrido[4,3-d]pyrimidin-4-yl)(methyl)amino)pyrrolidin-1-yl)prop-2-en-1-one]",< 10
